The text below walks through data of article PMC5589878, “Development of Fluorescent Probes that Target Serotonin 5-HT2B Receptors” (Scientific Reports, 2017).

The term melting point denotes the temperature, or range, at which the solid turns liquid. For orientation: Ki means the equilibrium dissociation constant of an inhibitor or competing ligand from its target. As usually defined, the EC50 is the concentration that produces a half-maximal response. Low values mean an effect from little substance, high ones a need for much substance.

Data set [1] addresses T1, human 5-HT2C receptors (Homo sapiens, UniProt P28335).
T1 construct: expressed in transfected cells; host or cells: HeLa-5-HT2C cells (membranes)
T1 sequence (P28335 33-458): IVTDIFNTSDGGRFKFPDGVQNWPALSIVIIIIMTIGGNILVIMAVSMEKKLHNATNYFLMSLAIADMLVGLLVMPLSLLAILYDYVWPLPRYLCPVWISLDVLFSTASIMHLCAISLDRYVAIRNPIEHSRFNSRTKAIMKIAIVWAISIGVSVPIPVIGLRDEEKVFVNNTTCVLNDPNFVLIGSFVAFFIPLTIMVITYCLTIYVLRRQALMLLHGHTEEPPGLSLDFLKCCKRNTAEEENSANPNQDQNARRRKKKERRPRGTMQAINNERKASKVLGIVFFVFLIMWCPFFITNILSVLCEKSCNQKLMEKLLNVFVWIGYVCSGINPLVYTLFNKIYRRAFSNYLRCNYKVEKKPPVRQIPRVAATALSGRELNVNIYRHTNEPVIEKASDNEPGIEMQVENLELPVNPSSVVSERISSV
Briefly: Radioligand competition binding assay at human 5-HT2C receptors. In general terms: In a radioligand displacement assay an active substance lowers the binding of a labelled ligand.

Data set [2] has as its target T2, 5-HT2B receptors (Homo sapiens, UniProt P41595). Briefly: Radioligand competition binding assay at human 5-HT2B receptors.
The target in data set [3] is 5-HT2A receptors (Homo sapiens, UniProt P28223). Briefly: Radioligand competition binding assay at human 5-HT2A receptors. Also noted: expressed in transfected cells; host or cells: CHO-FA4-5-HT2A cells (membranes).
Data set [4] deals with T2, 5-HT2B receptors. As to the kind of experiment: Functional assay of IPs accumulation at human 5-HT2B receptors. The class given is cell-based. As for the experimental part: After 24 h, growth medium was replaced by serum-free medium containing 10 μCi/mL [^3H]myo-inositol (20.3 Ci/mmol, Perkin-Elmer) for 24 h. […] After the incubation time, assay buffer was discarded and 200 μL of 100 mM formic acid was added to the cells for 30 min at 4 °C and 20 μL of the lysate were transferred to a flexiplate plate (Perkin-Elmer, Waltham, MA, USA) together with 80 μL of a solution of RNA Binding YSi SPA Beads (Perkin-Elmer, Waltham, MA, USA) to measure accumulation of [^3H]IPs (IP1,IP2, and IP3, collectively referred to as IPs).

Data set [5] can be described thus: Absorption and emission spectra (photophysical properties). It is filed as physicochemical. The note with it: 10 μM solutions. As for the experimental part: The absorption and emission spectra of the fluorescent 5-HT2 ligands (10 and 12) were determined on 10 μM solutions. The most relevant fluorescent properties are collected in Fig. 5. All of the synthesized derivatives emitted fluorescence in the visible region of the spectrum, with selected fluorescent tags (Fig. 4) providing distinctive properties and excitation wavelengths. The excitation wavelengths varied from 305 to 555 nm, whereas those for emission varied from 398 to 580 nm.

Setting [6] is: [3H]Mesulergine, membranes from HeLa-5-HT2C cells.
The mark [7] stands for this setting: [3H]Ketanserin, membranes from CHO-FA4-5-HT2A cells, read-out: Binding at 5-HT2 receptors Ki 5-HT2A.
[8] abbreviates: [3H]Mesulergine, membranes from HeLa-5-HT2C cells, read-out: Binding at 5-HT2 receptors Ki 5-HT2C.

Where two headings read alike, the source gives them in different places.

T2 sequence (P41595 whole entry): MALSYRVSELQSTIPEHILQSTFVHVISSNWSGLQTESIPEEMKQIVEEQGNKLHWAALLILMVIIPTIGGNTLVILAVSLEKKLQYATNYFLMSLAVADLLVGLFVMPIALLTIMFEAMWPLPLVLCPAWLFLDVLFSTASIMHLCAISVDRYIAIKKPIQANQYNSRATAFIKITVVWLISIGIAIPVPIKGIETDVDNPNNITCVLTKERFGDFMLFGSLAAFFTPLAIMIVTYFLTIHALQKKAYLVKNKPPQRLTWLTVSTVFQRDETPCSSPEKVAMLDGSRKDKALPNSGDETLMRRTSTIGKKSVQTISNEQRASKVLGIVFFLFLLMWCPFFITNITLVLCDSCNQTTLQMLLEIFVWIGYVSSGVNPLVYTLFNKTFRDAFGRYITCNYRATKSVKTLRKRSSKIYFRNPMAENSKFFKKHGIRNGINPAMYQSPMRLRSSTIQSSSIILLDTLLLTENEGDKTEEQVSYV
Sequence of 5-HT2A receptors (P28223 whole entry): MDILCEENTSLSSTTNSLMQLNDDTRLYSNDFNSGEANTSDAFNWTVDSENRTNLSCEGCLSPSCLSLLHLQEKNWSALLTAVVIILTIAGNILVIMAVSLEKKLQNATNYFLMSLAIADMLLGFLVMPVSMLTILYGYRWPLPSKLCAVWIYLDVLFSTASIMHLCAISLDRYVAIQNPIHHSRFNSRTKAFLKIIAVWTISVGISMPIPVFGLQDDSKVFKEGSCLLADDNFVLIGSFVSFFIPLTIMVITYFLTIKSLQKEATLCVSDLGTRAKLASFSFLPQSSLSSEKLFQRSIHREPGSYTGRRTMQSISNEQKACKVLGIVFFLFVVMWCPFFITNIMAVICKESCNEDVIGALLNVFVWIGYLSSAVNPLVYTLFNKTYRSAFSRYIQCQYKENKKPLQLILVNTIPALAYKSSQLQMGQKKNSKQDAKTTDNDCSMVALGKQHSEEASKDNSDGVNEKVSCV

With `COc1cc(CC(C)N)c(OCCCCCCCCCCC(=O)NCCCNS(=O)(=O)c2cccc3c(N(C)C)cccc23)cc1I` (stereo not shown) [10c, 11-(2-(2-aminopropyl)-5-iodo-4-methoxyphenoxy)-N-(3-((5-(dimethyl-amino)naphthalene)-1-sulfonamido)propyl)undecanamide], the melting point is 171 to 173 °C. In data set [1] (setting [6]), the “Binding at 5-HT2 receptors % at 1 μM 5-HT2C” value is listed as 1%. This molecule showed a Ki in data set [2] of 806 nM. Besides, the “Binding at 5-HT2 receptors % at 1 μM 5-HT2A” value in data set [3] (at 1 μM, [3H]Ketanserin, membranes from CHO-FA4-5-HT2A cells) is recorded as 2%.
On to `COC(=O)c1c(C(=O)OCCCNC(=O)CCCOc2cc(I)c(OC)cc2CC(C)N)c2cc(F)c(F)cc2c2cc(F)c(F)cc12` (stereo not shown) [12e, 9-(3-(4-(2-(2-aminopropyl)-5-iodo-4-methoxyphenoxy)butanamido)pro-pyl) 10-methyl 2,3,6,7-tetrafluorophenanthrene-9,10-dicarboxylate], for which, in data set [1], the Ki worked out at 2280 nM. In data set [2], this molecule gave a Ki of 148 nM. This molecule also returned an EC50 in data set [4] of 9.45 nM. For the same molecule, the Ki in data set [3] is 2.57 µM. In addition, in data set [5], the “Δλ (Stokes shift)” value was 83 nm, the εmax worked out at 18295 M⁻¹ cm⁻¹, the “λmax Abs” value worked out at 315 nm and the “λmax Em” value is 398 nm.
“3-(2-(2-(2-(2-aminopropyl)-5-iodo-4-methoxyphenoxy)ethoxy)ethoxy)-N-(3-((5-(dimethylamino)naphthalene)-1-sulfonamido)propyl)propanamide [10d]”: in data set [1] (setting [6]), the “Binding at 5-HT2 receptors % at 1 μM 5-HT2C” value came to 3%. Further, the Ki in data set [3] (setting [7]) was determined as 13 µM.
For `COC(=O)c1c(C(=O)OCCCNC(=O)CCCOc2cc(I)c(OC)cc2CC(C)N)c2cc3ccccc3cc2c2cc3ccccc3cc12` (stereo not shown) [12g, 6-(3-(4-(2-(2-aminopropyl)-5-iodo-4-methoxyphenoxy)butanamido)pro-pyl) 7-methyl pentaphene-6,7-dicarboxylate], the melting point fell in the range of 150 to 152 °C. Besides, in data set [1] (setting [8]), the Ki was found to be 2280 nM. The affinity in data set [2] corresponds to a Ki of 283 nM. The Ki in data set [3] (setting [7]) was 3.7 µM. For the same molecule, in data set [5], the “Δλ (Stokes shift)” value stood at 123 nm, the εmax came out at 9977 M⁻¹ cm⁻¹, the “λmax Abs” value worked out at 375 nm and the “λmax Em” value was found to be 498 nm.
In turn, `COC(=O)c1c(C(=O)OCCCNC(=O)CCCOc2cc(I)c(OC)cc2CC(C)N)c2ccccc2c2ccccc12` (stereo not shown) [12d, 9-(3-(4-(2-(2-aminopropyl)-5-iodo-4-methoxyphenoxy)butanamido)pro-pyl)-10-methyl phenanthrene-9,10-dicarboxylate] showed a Ki in data set [1] of 1100 nM. This molecule had a Ki in data set [2] of 140 nM. The EC50 in data set [4] was determined as 25.6 nM. This molecule had an inhibition constant (Ki) in data set [3] of 3.98 µM. Also, in data set [5], the “Δλ (Stokes shift)” value amounted to 98 nm, the εmax is 6813 M⁻¹ cm⁻¹, the “λmax Abs” value came out at 305 nm and the “λmax Em” value is 403 nm.
`COc1cc(CC(C)N)c(OCCCC(=O)NCCCN2C(=O)c3c(c4ccccc4c4ccccc34)C2=O)cc1I` (stereo not shown) [12c, 4-(2-(2-aminopropyl)-5-iodo-4-methoxyphenoxy)-N-(3-(1,3-dioxo-1,3-dihydro-2H-dibenzo[e,g]isoindol-2-yl)propyl)butanamide] registered a Ki in data set [1] of 616 nM. This molecule gave a Ki in data set [2] of 86.9 nM. For the same molecule, in data set [4], the EC50 is 24.9 nM. In data set [3], this molecule registered an inhibition constant (Ki) of 5.18 µM. Besides, in data set [5], the “Δλ (Stokes shift)” value is 76 nm, the εmax was 2758 M⁻¹ cm⁻¹, the “λmax Abs” value is listed as 390 nm and the “λmax Em” value amounted to 466 nm.
Consider `CCCCCCC(CCCCCC)N1C(=O)c2ccc3c4ccc5c6c(ccc(c7ccc(c2c37)C1=O)c64)C(=O)N(CCCNC(=O)CCCOc1cc(I)c(OC)cc1CC(C)N)C5=O` (stereo not shown) [12h, 4-(2-(2-aminopropyl)-5-iodo-4-methoxyphenoxy)-N-(3-(1,3,8,10-tetraoxo-9-(tridecan-7-yl)-3,8,9,10-tetrahydroanthra[2,1,9-def:6,5,10-d′e′f′]diisoquinolin-2(1H)-yl)propyl)butanamide], for which the melting point is 169 to 171 °C. Also, the Ki in data set [1] (setting [8]) is 7990 nM. Further, the Ki in data set [2] amounted to 1410 nM. The Ki in data set [3] (setting [7]) was found to be 15 µM. In data set [5], the “Δλ (Stokes shift)” value is 70 nm, the εmax stood at 27500 M⁻¹ cm⁻¹, the “λmax Abs” value turned out to be 460 nm and the “λmax Em” value is recorded as 530 nm.
As to `COC(=O)c1c(C(=O)OCCCNC(=O)CCCOc2cc(I)c(OC)cc2CC(C)N)c2cc3c(cc2c2cc4c(cc12)CCC4)CCC3` (stereo not shown) [12f, 5-(3-(4-(2-(2-aminopropyl)-5-iodo-4-methoxyphenoxy)butanamido)pro-pyl)-6-methyl-1,2,3,8,9,10-hexahydrodicyclopenta[b,h]phenanthrene-5,6-dicarbo-xylate], the Ki in data set [1] was determined as 1030 nM. For the same molecule, in data set [2], the Ki amounted to 136 nM. This molecule returned an EC50 in data set [4] of 47 nM. Besides, the Ki in data set [3] is 2.32 µM. Besides, in data set [5], the “Δλ (Stokes shift)” value was 119 nm, the εmax stood at 12078 M⁻¹ cm⁻¹, the “λmax Abs” value was found to be 309 nm and the “λmax Em” value was found to be 428 nm.
Regarding `COc1cc(CC(C)N)c(OCCCC(=O)NCCCNc2ccc([N+](=O)[O-])c3nonc23)cc1I` (stereo not shown) [12b, 4-(2-(2-aminopropyl)-5-iodo-4-methoxyphenoxy)-N-(3-((7-nitroben-zo[c][1,2,5]oxadiazol-4-yl)amino)propyl)butanamide], the melting point was 158 to 160 °C. In data set [1], this molecule displayed a Ki of 1810 nM. Besides, the Ki in data set [2] came out at 91 nM. In addition, the “selectivity for the 5-HT2B receptor subtype” value in data set [2] (over 5-HT2A and 5-HT2C, from binding Ki) is not below 20 fold. In data set [4], this molecule had an EC50 of 3.27 nM. In data set [3], this molecule had an inhibitory constant (Ki) of 3.31 µM. Moreover, in data set [5], the “Δλ (Stokes shift)” value was determined as 69 nm, the εmax was 23881 M⁻¹ cm⁻¹, the “λmax Abs” value was determined as 461 nm and the “λmax Em” value is 530 nm.
Turning to `COc1cc(CC(C)N)c(OCCCCCCC(=O)NCCCNS(=O)(=O)c2cccc3c(N(C)C)cccc23)cc1I` (stereo not shown) [10b, 7-(2-(2-aminopropyl)-5-iodo-4-methoxyphenoxy)-N-(3-((5-(dimethylami-no)naphthalene)-1-sulfonamido)propyl)heptanamide], the Ki is 295 nM in data set [1], 167 nM in data set [2] and 41.2 µM in data set [3]. This molecule also displayed an EC50 in data set [4] of 245 nM.
On to `COc1cc(CC(C)N)c(OCCCC(=O)NCCCNS(=O)(=O)c2cccc3c(N(C)C)cccc23)cc1I` (stereo not shown) [10a, 4-(2-(2-aminopropyl)-5-iodo-4-methoxyphenoxy)-N-(3-((5-(dimethyl-amino)naphthalene)-1-sulfonamido)propyl)butanamide], for which the Ki in data set [1] is 273 nM. Further, the Ki in data set [2] stood at 112 nM. In data set [4], this molecule yielded an EC50 of 89.1 nM. In data set [3], the Ki worked out at 1.71 µM. In data set [5], the “Δλ (Stokes shift)” value is on record as 147 nm, the εmax was 2726 M⁻¹ cm⁻¹, the “λmax Abs” value came out at 350 nm and the “λmax Em” value was 497 nm.
